One experiment addresses CYP2D6 (Homo sapiens, UniProt P10635). The experiment in a line: CYP2D6 inhibition (fluorescent substrate AMMC). In kind it is in vitro ADME. The note with it: read-out: Cyp IC50 2D6. The procedure, abridged: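 IC50 derives from metabolite fluorescence against compound concentration, read at excitation 409 nm and emission 460 nm for CYP1A2/2C19 or 530 nm for CYP2C9/2D6. Incubations ran at 37° C for 15 min (1A2), 45 min (2C9) or 30 min (2C19, 2D6), after serial dilution into NADPH cofactor mix and 10 min preincubation.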

Another experiment relates to SKNSH cells. Put plainly: SKNSH (human neuroblastoma) cell proliferation assay (ATPlite). In kind it is cell-based. Conditions: SK-N-SH, read-out: Inhibition of Cell Proliferation IC50, SKNSH. The procedure, abridged: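 Fms/Trk inhibitor efficacy was tested by proliferation of SKNSH neuroblastoma cells. After 3 days of compound exposure at 37° C. in 5% CO2, 20 μL per well of ATPlite 1 step reagent was added, plates sat 10 minutes at room temperature, and luminescence, proportional to cell number, was read on a Safire reader to derive IC50.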

The target in a further experiment is T1, BCR-NTRK3 BaF3 cells (Homo sapiens, UniProt Q16288).
T1 construct: fused on or other part: P11274 (Breakpoint cluster region protein)
Put plainly: BaF3 BCR-NTRK3 cell proliferation assay (ATPlite). The experiment is classed as cell-based. The note with it: read-out: Inhibition of Cell Proliferation IC50, BCR/BaF3 TrkC. Put shortly:
(§1)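 IL-3-free growth, 3-day compound exposure (8-point 1:3 titration, top 10 μM, DMSO control), 37 °C 5% CO2. BaF3 10,000 or MV-4-11 25,000 cells/well, plated overnight beforehand. Read-out ATPlite luminescence vs concentration → IC50.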

In another experiment the target is T2, BCR-NTRK2 BaF3 cells (Homo sapiens, UniProt Q16620).
T2 construct: fused on or other part: P11274 (Breakpoint cluster region protein)
The experiment in a line: BaF3 BCR-NTRK2 cell proliferation assay (ATPlite). The experiment is classed as cell-based. Conditions: read-out: Inhibition of Cell Proliferation IC50, BCR/BaF3 TrkB. The procedure, abridged: as §1

CYP2D6, sequence (P10635 whole entry): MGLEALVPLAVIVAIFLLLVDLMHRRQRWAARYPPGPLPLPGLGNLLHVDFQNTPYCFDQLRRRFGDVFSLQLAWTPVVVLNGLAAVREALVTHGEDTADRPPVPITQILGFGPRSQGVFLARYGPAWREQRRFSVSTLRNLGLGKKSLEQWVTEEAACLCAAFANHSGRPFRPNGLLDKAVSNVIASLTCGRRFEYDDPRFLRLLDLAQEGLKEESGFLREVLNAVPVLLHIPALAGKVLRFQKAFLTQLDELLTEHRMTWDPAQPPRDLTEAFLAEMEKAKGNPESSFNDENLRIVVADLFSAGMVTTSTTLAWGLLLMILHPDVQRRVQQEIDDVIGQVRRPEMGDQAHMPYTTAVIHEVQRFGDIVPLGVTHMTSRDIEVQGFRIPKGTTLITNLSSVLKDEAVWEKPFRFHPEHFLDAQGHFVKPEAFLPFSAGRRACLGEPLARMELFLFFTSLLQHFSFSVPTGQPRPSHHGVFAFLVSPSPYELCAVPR
T2 sequence (Q16620 538-807): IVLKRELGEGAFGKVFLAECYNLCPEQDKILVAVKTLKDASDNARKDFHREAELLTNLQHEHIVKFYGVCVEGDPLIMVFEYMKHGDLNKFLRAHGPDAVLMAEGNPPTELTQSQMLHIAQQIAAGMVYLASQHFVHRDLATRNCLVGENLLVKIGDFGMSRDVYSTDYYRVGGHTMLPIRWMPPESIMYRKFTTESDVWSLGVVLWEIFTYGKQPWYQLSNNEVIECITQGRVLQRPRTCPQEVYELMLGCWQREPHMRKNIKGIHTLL
T1 sequence (Q16288 whole entry, the tested form may be a part): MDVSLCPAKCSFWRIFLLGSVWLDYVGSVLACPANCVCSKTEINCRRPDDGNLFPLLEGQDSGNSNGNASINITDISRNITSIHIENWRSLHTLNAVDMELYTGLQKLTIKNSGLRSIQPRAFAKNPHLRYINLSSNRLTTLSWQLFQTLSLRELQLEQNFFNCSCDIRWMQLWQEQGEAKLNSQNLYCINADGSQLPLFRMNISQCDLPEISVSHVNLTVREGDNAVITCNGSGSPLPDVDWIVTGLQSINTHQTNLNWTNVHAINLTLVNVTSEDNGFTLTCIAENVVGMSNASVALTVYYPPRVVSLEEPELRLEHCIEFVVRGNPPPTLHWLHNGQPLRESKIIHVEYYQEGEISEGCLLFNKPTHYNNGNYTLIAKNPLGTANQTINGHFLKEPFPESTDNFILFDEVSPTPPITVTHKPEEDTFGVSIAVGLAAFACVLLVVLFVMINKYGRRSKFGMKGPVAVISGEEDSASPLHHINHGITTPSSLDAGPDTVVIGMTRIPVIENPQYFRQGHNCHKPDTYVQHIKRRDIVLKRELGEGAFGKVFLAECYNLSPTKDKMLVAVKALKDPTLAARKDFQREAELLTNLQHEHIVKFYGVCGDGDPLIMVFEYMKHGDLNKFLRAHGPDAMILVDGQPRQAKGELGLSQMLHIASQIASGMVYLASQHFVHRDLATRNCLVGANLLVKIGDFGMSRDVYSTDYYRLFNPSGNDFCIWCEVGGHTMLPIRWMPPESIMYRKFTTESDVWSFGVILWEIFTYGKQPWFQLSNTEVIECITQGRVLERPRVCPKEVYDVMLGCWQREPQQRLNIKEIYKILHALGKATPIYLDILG

`CCOc1ncnc2[nH]cc(Cc3ccc(Nc4cnn(CC)c4)nc3F)c12` [Compound P-4012, [5-(4-Ethoxy-7H-pyrrolo[2,3-d]pyrimidin-5-ylmethyl)-6-fluoro-pyridin-2-yl]-(1-ethyl-1H-pyrazol-4-yl)-amine]: the IC50 is more than 10000 nM at CYP2D6, more than 1000 nM with SKNSH cells, less than 100 nM on BCR-NTRK3 BaF3 cells and less than 100 nM at BCR-NTRK2 BaF3 cells.

As to `COc1ncnc2[nH]cc(Cc3ccc(Nc4ccc(C)nc4)nc3F)c12` [Compound P-4010, [6-Fluoro-5-(4-methoxy-7H-pyrrolo[2,3-d]pyrimidin-5-ylmethyl)-pyridin-2-yl]-(6-methyl-pyridin-3-yl)-amine], the IC50 at CYP2D6 was more than 10000 nM; in the experiment with SKNSH cells it was less than 1000 nM; at BCR-NTRK3 BaF3 cells, less than 100 nM; at BCR-NTRK2 BaF3 cells it was less than 100 nM.

Take `Cc1ccc(Nc2ccc(C(=O)c3c[nH]c4ncc(Cl)cc34)c(F)n2)cn1` [Compound P-3044, (5-Chloro-1H-pyrrolo[2,3-b]pyridin-3-yl)-[2-fluoro-6-(6-methyl-pyridin-3-ylamino)-pyridin-3-yl]-methanone]: the IC50 on CYP2D6 is more than 10000 nM; with SKNSH cells it was more than 1000 nM; at BCR-NTRK3 BaF3 cells, less than 100 nM; on BCR-NTRK2 BaF3 cells, less than 100 nM.

For the compound `CCOc1ccc(Nc2ccc(Cc3c[nH]c4ncnc(C)c34)c(F)n2)cn1` [Compound P-4006, (6-Ethoxy-pyridin-3-yl)-[6-fluoro-5-(4-methyl-7H-pyrrolo[2,3-d]pyrimidin-5-ylmethyl)-pyridin-2-yl]-amine], the IC50 at CYP2D6 was more than 10000 nM; with SKNSH cells, less than 100 nM; on BCR-NTRK3 BaF3 cells, less than 10 nM; on BCR-NTRK2 BaF3 cells, less than 10 nM.

In the case of `Cc1cnc2[nH]cc(Cc3cnc(Nc4cc(OC(C)C)n[nH]4)nc3)c2c1` [Compound P-3038, (5-Isopropoxy-2H-pyrazol-3-yl)-[5-(5-methyl-1H-pyrrolo[2,3-b]pyridin-3-ylmethyl)-pyrimidin-2-yl]-amine], the IC50 in the experiment on SKNSH cells is more than 25000 nM; at BCR-NTRK3 BaF3 cells it was less than 1000 nM; at BCR-NTRK2 BaF3 cells, more than 1000 nM.

With `Cc1cnc2[nH]cc(Cc3cnc(Nc4ccc(C(O)(C(F)(F)F)C(F)(F)F)cc4)nc3)c2c1` [Compound P-3031, 1,1,1,3,3,3-Hexafluoro-2-{4-[5-(5-methyl-1H-pyrrolo[2,3-b]pyridin-3-ylmethyl)-pyrimidin-2-ylamino]-phenyl}-propan-2-ol], the results for the IC50 in the experiment with SKNSH cells, at BCR-NTRK3 BaF3 cells and on BCR-NTRK2 BaF3 cells were less than 100 nM, less than 10 nM and less than 10 nM, respectively.

On to `Cc1cnc2[nH]cc(Cc3cnc(Nc4ccc(S(C)(=O)=O)cc4)nc3)c2c1` [Compound P-3034, (4-Methanesulfonyl-phenyl)-[5-(5-methyl-1H-pyrrolo[2,3-b]pyridin-3-ylmethyl)-pyrimidin-2-yl]-amine], for which the IC50 in the experiment on SKNSH cells is less than 1000 nM; on BCR-NTRK3 BaF3 cells it was less than 100 nM; at BCR-NTRK2 BaF3 cells, less than 1000 nM.

On to `CCn1ccc(Nc2ncc(Cc3c[nH]c4ncc(C)cc34)cn2)n1` [Compound P-3035, (1-Ethyl-1H-pyrazol-3-yl)-[5-(5-methyl-1H-pyrrolo[2,3-b]pyridin-3-ylmethyl)-pyrimidin-2-yl]-amine], for which the IC50 was less than 1000 nM with SKNSH cells, less than 100 nM on BCR-NTRK3 BaF3 cells and less than 1000 nM at BCR-NTRK2 BaF3 cells.

On to `CCOc1ncnc2[nH]cc(Cc3ccc(Nc4cccnc4)nc3F)c12` [Compound P-4021, [5-(4-Ethoxy-7H-pyrrolo[2,3-d]pyrimidin-5-ylmethyl)-6-fluoro-pyridin-2-yl]-pyridin-3-yl-amine], for which the IC50 in the experiment with SKNSH cells, at BCR-NTRK3 BaF3 cells and on BCR-NTRK2 BaF3 cells was less than 1000 nM throughout.

As for `CCOc1ccc(Nc2ccc(C(=O)c3c[nH]c4ncc(C)cc34)c(F)n2)cn1` [Compound P-3045, [6-(6-ethoxy-pyridin-3-ylamino)-2-fluoro-pyridin-3-yl]-(5-methyl-1H-pyrrolo[2,3-b]pyridin-3-yl)-methanone], the IC50 was more than 25000 nM in the experiment with SKNSH cells, less than 100 nM at BCR-NTRK3 BaF3 cells and less than 10 nM on BCR-NTRK2 BaF3 cells.

Turning to `CSc1ccc(Nc2ncc(Cc3c[nH]c4ncc(C)cc34)cn2)cc1` [Compound P-3033, [5-(5-Methyl-1H-pyrrolo[2,3-b]pyridin-3-ylmethyl)-pyrimidin-2-yl]-(4-methylsulfanyl-phenyl)-amine], the results for the IC50 with SKNSH cells, on BCR-NTRK3 BaF3 cells and on BCR-NTRK2 BaF3 cells were less than 1000 nM, less than 100 nM and less than 100 nM, respectively.

On to `Cc1ccc(Nc2ccc(Cc3c[nH]c4ncc(Cl)cc34)c(F)n2)cn1` [Compound P-3042, [5-(5-Chloro-1H-pyrrolo[2,3-b]pyridin-3-ylmethyl)-6-fluoro-pyridin-2-yl]-(6-methyl-pyridin-3-yl)-amine], for which the values for the IC50 with SKNSH cells, on BCR-NTRK3 BaF3 cells and on BCR-NTRK2 BaF3 cells were more than 1000 nM, less than 100 nM and less than 100 nM, respectively.

Regarding `CCOc1ncnc2[nH]cc(Cc3ccc(Nc4ccc(Br)nc4)nc3F)c12` [Compound P-4020, (6-Bromo-pyridin-3-yl)-[5-(4-ethoxy-7H-pyrrolo[2,3-d]pyrimidin-5-ylmethyl)-6-fluoro-pyridin-2-yl]-amine], the IC50 is less than 1000 nM in the experiment on SKNSH cells, less than 100 nM on BCR-NTRK3 BaF3 cells and less than 100 nM at BCR-NTRK2 BaF3 cells.

For `Cc1cnc2[nH]cc(Cc3cnc(Nc4cc(C(C)(C)C)n[nH]4)nc3)c2c1` [Compound P-3029, (5-tert-Butyl-2H-pyrazol-3-yl)-[5-(5-methyl-1H-pyrrolo[2,3-b]pyridin-3-ylmethyl)-pyrimidin-2-yl]-amine], the figures for the IC50 with SKNSH cells, at BCR-NTRK3 BaF3 cells and on BCR-NTRK2 BaF3 cells were more than 25000 nM, less than 1000 nM and more than 1000 nM, respectively.

In the case of `COc1ccc(Nc2ncc(Cc3c[nH]c4ncc(C)cc34)cn2)cn1` [Compound P-3020, (6-Methoxy-pyridin-3-yl)-[5-(5-methyl-1H-pyrrolo[2,3-b]pyridin-3-ylmethyl)-pyrimidin-2-yl]-amine], the IC50 with SKNSH cells was less than 1000 nM; at BCR-NTRK3 BaF3 cells it was less than 100 nM; at BCR-NTRK2 BaF3 cells, less than 100 nM.

On to `Cc1cnc2[nH]cc(Cc3cnc(Nc4cc(C(F)(F)F)n[nH]4)nc3)c2c1` [Compound P-3037, [5-(5-Methyl-1H-pyrrolo[2,3-b]pyridin-3-ylmethyl)-pyrimidin-2-yl]-(5-trifluoromethyl-2H-pyrazol-3-yl)-amine], for which the IC50 in the experiment on SKNSH cells is more than 25000 nM; on BCR-NTRK3 BaF3 cells it was more than 1000 nM; at BCR-NTRK2 BaF3 cells, more than 10000 nM.

For `CCn1cc(Nc2ncc(Cc3c[nH]c4ncc(C)cc34)cn2)cn1` [Compound P-3036, (1-Ethyl-1H-pyrazol-4-yl)-[5-(5-methyl-1H-pyrrolo[2,3-b]pyridin-3-ylmethyl)-pyrimidin-2-yl]-amine], the IC50 in the experiment on SKNSH cells is less than 20000 nM; on BCR-NTRK3 BaF3 cells it was less than 1000 nM; on BCR-NTRK2 BaF3 cells, less than 1000 nM.

`CCOc1ccc(Nc2ncc(Cc3c[nH]c4ncc(C)cc34)cn2)cc1` [Compound P-3026, (4-Ethoxy-phenyl)-[5-(5-methyl-1H-pyrrolo[2,3-b]pyridin-3-ylmethyl)-pyrimidin-2-yl]-amine]: the IC50 in the experiment on SKNSH cells is more than 25000 nM; on BCR-NTRK3 BaF3 cells it was less than 100 nM; at BCR-NTRK2 BaF3 cells, less than 100 nM.

In the case of `Cc1cnc2[nH]cc(Cc3cnc(Nc4cc(-c5ccc(F)cc5)n[nH]4)nc3)c2c1` [Compound P-3028, [5-(4-Fluoro-phenyl)-2H-pyrazol-3-yl]-[5-(5-methyl-1H-pyrrolo[2,3-b]pyridin-3-ylmethyl)-pyrimidin-2-yl]-amine], the results for the IC50 in the experiment on SKNSH cells, on BCR-NTRK3 BaF3 cells and on BCR-NTRK2 BaF3 cells were less than 20000 nM, less than 100 nM and less than 1000 nM, respectively.

On to `Cc1cnc2[nH]cc(Cc3cnc(Nc4ccc(C(C)(C)C)cc4)nc3)c2c1` [Compound P-3030, (4-tert-Butyl-phenyl)-[5-(5-methyl-1H-pyrrolo[2,3-b]pyridin-3-ylmethyl)-pyrimidin-2-yl]-amine amine], for which the values for the IC50 in the experiment with SKNSH cells, at BCR-NTRK3 BaF3 cells and on BCR-NTRK2 BaF3 cells were less than 100 nM, less than 10 nM and less than 10 nM, respectively.

As for `CCOc1ccc(Nc2ncc(Cc3c[nH]c4ncc(C)cc34)cn2)cn1` [Compound P-3027, (6-Ethoxy-pyridin-3-yl)-[5-(5-methyl-1H-pyrrolo[2,3-b]pyridin-3-ylmethyl)-pyrimidin-2-yl]-amine], the IC50 in the experiment on SKNSH cells was more than 25000 nM; on BCR-NTRK3 BaF3 cells, less than 100 nM; at BCR-NTRK2 BaF3 cells, less than 1000 nM.

As to `CCc1ccc(Nc2ncc(Cc3c[nH]c4ncc(C)cc34)cn2)cc1` [Compound P-3025, (4-Ethyl-phenyl)-[5-(5-methyl-1H-pyrrolo[2,3-b]pyridin-3-ylmethyl)-pyrimidin-2-yl]-amine], the IC50 was less than 1000 nM in the experiment on SKNSH cells, less than 10 nM at BCR-NTRK3 BaF3 cells and less than 10 nM at BCR-NTRK2 BaF3 cells.

Take `Cc1cnc2[nH]cc(Cc3cnc(Nc4cc(C5CC5)n[nH]4)nc3)c2c1` [Compound P-3032, (5-Cyclopropyl-2H-pyrazol-3-yl)-[5-(5-methyl-1H-pyrrolo[2,3-b]pyridin-3-ylmethyl)-pyrimidin-2-yl]-amine]: the IC50 in the experiment with SKNSH cells is less than 1000 nM; at BCR-NTRK3 BaF3 cells, less than 1000 nM; on BCR-NTRK2 BaF3 cells it was more than 1000 nM.

Turning to `CCCOc1ccc(Nc2ncc(Cc3c[nH]c4ncc(C)cc34)cn2)cc1` [Compound P-3024, [5-(5-Methyl-1H-pyrrolo[2,3-b]pyridin-3-ylmethyl)-pyrimidin-2-yl]-(4-propoxy-phenyl)-amine], the IC50 with SKNSH cells is less than 1000 nM; at BCR-NTRK3 BaF3 cells, less than 100 nM; at BCR-NTRK2 BaF3 cells it was less than 1000 nM.

For the origin of these results see patent US8901118B2, “Compounds and methods for kinase modulation, and indications therefor” (Plexxikon Inc., priority 2010, dated 2014).
